Reference: patent publication US20140087007A1, “BOWEL CLEANSING PREPARATIONS” (Braintree Laboratories, Inc., priority 2012, published 2014)

Tested on: colon (colonic purgation)
Test: Stool output of normal volunteers after one amount of laxative, bowel movements collected 24 hours
Type: in vivo, human
Conditions: 20 mg, 24 hours collection
Experimental: The sulfate salt solutions such as those described herein were investigated for their efficacy as colon debulking agents because bisacodyl has been associated with reports of abdominal cramping. Four different solutions were prepared with varying amounts of sodium, magnesium, and potassium sulfate salts and each containing a total sulfate amount of 125 mM.
These included bisacodyl (20 mg), a PEG and balanced electrolyte isotonic preparation (NuLYTELY®, (2 L or 4 L) or HalfLytely®+Bisacodyl Bowel Prep Kit, (2 L PEG and electrolytes and 10 mg bisacodyl). Bowel movements and urine were collected for 24 hours. The stool output of the subjects were compared and evaluated for movement of electrolytes between the solution and the subject.
The results measured were mean stool volume output and are shown below in Table 2 using non-sulfate laxatives and in Table 3 using sulfate laxatives.

`CC(=O)Oc1ccc(C(c2ccc(OC(C)=O)cc2)c2ccccn2)cc1` [Bisacodyl, bisacodyl] was tested, and the “% Solids (stool)” value was 50.4% and the “Output (mean stool volume output)” value was 757 g.
